From patent publication US9783536B2, “Nitrogen-containing heterocyclic compound or salt thereof” (FUJIFILM Corporation, priority 2013, dated 2017) come the findings set out here.

The structures appear in SMILES notation. Structures can show the parent of a compound that is named as a salt. Where two headings read alike, the source gives them in different places.

The target of assay [1] is T1, GST fusion human ERK2 protein (Homo sapiens, UniProt P28482).
T1 construct: purchased Carna Biosciences, Inc; host or cells: E. coli expression system
T1 sequence (P28482 whole entry, the tested form may be a part): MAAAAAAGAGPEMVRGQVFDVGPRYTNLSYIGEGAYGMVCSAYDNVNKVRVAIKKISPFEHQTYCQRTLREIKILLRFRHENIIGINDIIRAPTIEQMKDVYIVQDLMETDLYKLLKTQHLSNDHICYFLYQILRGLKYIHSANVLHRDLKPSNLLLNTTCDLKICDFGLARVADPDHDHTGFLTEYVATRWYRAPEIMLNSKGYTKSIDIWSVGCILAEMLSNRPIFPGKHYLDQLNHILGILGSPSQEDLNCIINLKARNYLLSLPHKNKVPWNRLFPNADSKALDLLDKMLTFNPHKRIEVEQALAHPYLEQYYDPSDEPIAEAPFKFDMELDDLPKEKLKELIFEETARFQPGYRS
The assay is described as follows: ERK2 enzyme assay (1). It counts as biochemical. The following applies: read-out: ERK2 enzyme inhibitory activity (1). As to the method: In an ERK2 enzyme assay, GLUTATHIONE S-TRANSFERASE (GST) FUSION HUMAN ERK2 PROTEIN (manufactured by Carna Biosciences, Inc.), which was produced by using an E. coli expression system, was used.
12 μL of a reaction liquid (2.5 nmol/L ERK2, 100 mmol/L Hepes, 10 mmol/L MgCl2, 1.5 mmol/L DTT, 0.003% Brij35, pH 7.5) including ERK2 protein and a test compound having a predetermined concentration was allowed to stand at room temperature for 15 minutes. Then, 3 μL of a mixture liquid of FL-PEPTIDE8 (5-FAM-IPTSPITTTYFFFKKK-COOH) (manufactured by Caliper Life Sciences), which is substrate peptide, and ATP (manufactured by Sigma-Aldrich Co. LLC.) was added thereto such that the final concentrations thereof became 4.25 μmol/L and 43.1 μmol/L, respectively, and an enzyme reaction was performed by allowing to stand at 25° C. for 120 minutes.
After the reaction, the enzyme reaction was stopped by adding 30 μL of a reaction stopper liquid (100 mmol/L HEPES, 11.2 mmol/L EDTA, 5.6% Brij35, pH 7.5) including a 0.5% COATING REAGENT 8 (trade name, manufactured by Perkin Elmer Inc.) thereto. Then, phosphorylated peptide and non-phosphorylated peptide were separated using LABCHIP EZ READER (trade name, manufactured by Caliper Life Sciences), and the porportion of the phosphorylated peptide was quantified.
The inhibitory activities of the compounds were evaluated using IC50 (50% inhibitory concentration). The IC50 was calculated using XLFIT (trade name, manufactured by ID Business Solutions).

Assay [2] has as its target T2, human PI3Kα protein (Homo sapiens, UniProt P42336).
T2 construct: purchased Carna Biosciences, Inc; host or cells: baculovirus expression system
In words: PI3Kα enzyme assay (ADP-Glo). The conditions noted are these: 4.5 nmol/L PI3Kα, PIP2 50 μmol/L, ATP 100 μmol/L; read-out: PI3Kα enzyme inhibitory activity. It counts as biochemical. The essentials:
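Biotinylated human PI3Kα (baculovirus-expressed, 4.5 nmol/L) pre-incubated 15 min with compound in Tris-HCl pH 7.5, MgCl2, BSA; reaction 60 min at 25° C with 50 μmol/L PIP2 and 100 μmol/L ATP final. ADP quantified by ADP-Glo luminescence; IC50 calculated.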
Background: ADP-Glo first removes unused ATP, then detects ADP through luciferase.

[3] abbreviates: 2.5 nmol/L ERK2, ATP 43.1 μmol/L.

T2 sequence (P42336 whole entry): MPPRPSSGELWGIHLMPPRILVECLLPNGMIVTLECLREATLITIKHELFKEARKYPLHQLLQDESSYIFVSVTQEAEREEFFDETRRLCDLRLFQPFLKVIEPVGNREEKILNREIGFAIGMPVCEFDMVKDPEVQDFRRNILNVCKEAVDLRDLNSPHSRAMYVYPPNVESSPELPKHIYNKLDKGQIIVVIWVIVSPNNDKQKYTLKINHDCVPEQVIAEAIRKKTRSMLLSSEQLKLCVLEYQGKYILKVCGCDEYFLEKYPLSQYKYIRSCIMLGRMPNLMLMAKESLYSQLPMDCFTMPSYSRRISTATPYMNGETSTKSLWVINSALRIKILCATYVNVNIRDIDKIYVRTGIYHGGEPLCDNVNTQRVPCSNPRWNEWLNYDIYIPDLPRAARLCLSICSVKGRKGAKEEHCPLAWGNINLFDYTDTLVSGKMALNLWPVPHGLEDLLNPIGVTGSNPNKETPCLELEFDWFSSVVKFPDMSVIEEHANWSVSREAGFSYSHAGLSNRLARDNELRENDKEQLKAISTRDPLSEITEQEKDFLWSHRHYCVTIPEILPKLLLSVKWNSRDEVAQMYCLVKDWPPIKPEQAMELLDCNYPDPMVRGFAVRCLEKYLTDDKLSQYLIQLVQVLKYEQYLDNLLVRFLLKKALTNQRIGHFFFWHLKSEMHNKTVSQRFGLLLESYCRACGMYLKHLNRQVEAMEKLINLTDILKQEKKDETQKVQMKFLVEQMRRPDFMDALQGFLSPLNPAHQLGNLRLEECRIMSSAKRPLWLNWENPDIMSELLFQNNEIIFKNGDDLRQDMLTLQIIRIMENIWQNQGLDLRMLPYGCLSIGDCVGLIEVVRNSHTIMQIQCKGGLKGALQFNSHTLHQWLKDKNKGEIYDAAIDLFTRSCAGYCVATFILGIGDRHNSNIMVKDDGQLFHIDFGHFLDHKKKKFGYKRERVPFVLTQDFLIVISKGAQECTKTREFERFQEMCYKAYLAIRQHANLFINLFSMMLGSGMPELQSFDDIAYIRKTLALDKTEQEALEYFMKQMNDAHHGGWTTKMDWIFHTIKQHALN
T2 sequence (P27986 whole entry partner): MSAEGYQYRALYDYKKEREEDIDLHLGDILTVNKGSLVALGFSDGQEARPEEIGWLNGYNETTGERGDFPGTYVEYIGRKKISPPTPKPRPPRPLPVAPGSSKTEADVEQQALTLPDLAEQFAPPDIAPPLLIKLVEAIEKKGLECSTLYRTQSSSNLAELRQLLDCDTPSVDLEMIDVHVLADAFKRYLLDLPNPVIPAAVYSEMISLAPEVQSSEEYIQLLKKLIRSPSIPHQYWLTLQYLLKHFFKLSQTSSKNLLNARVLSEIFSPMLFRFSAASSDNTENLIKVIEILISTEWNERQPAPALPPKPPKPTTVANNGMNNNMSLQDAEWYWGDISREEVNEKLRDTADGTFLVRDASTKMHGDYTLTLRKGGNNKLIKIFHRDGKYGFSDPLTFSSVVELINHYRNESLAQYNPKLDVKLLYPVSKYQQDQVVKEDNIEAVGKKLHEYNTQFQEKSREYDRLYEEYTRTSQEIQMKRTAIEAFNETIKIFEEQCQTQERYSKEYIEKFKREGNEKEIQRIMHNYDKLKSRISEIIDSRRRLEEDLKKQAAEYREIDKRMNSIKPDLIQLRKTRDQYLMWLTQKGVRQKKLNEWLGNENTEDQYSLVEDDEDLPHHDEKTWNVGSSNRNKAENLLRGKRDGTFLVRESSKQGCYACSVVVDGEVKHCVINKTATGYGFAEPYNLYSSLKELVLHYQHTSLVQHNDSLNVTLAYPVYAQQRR

Regarding `c1nnc(Nc2ccc3ncc(-c4cnn(CCN5CCOCC5)c4)cc3n2)s1` [Example 0002], the IC50 in assay [1] (setting [3]) and in assay [2] was < 1000 nM in each case.

`c1nnc(Nc2ccc3ncc(N4CCOCC4)cc3n2)s1` [Example 0003, N-(7-morpholino-1,5-naphthyridin-2-yl)-1,3,4-thiadiazole-2-amine]: the IC50 in assay [1] (setting [3]) was < 1000 nM; in assay [2], 1000 to 10000 nM. For `CC(C)c1nnc(Nc2ccc3nccc(Nc4ccncc4)c3n2)s1` [Example 0004, N^2-(5-isopropyl-1,3,4-thiadiazol-2-yl)-N^8-(pyridin-4-yl)-1,5-naphthyridine-2,8-diamine] the same measures were < 1000 nM and < 1000 nM.

Regarding `CC(C)c1nnc(Nc2ccc3nccc(Nc4cccnc4)c3n2)s1` [Example 0006], the IC50 in assay [1] (setting [3]) and in assay [2] was < 1000 nM each time.

As for `CC(C)c1nnc(Nc2ccc3nccc(Nc4ccncn4)c3n2)s1` [Example 0007], the IC50 in assay [1] (setting [3]) and in assay [2] was < 1000 nM in each case. Consider `CC(C)c1nnc(Nc2ccc3nccc(Nc4ccnnc4)c3n2)s1` [Example 0008], for which the results for the IC50 in assay [1] (setting [3]) and in assay [2] were 1000 to 10000 nM and < 1000 nM, respectively.

For `CC(C)c1nnc(Nc2ccc3nccc(Nc4ccccc4)c3n2)s1` [Example 0009], the IC50 in assay [1] (setting [3]) and in assay [2] was 1000 to 10000 nM each time. `CC(C)c1nnc(Nc2ccc3ncc(-c4cnn(C)c4)nc3n2)s1` [Example 0010, 5-isopropyl-N-(3-(1-methyl-1H-pyrazol-4-yl)pyrido[2,3-b]pyrazine-6-yl)-1,3,4-thiadiazole-2-amineformate]: the IC50 was < 1000 nM in assay [1] (setting [3]) and 1000 to 10000 nM in assay [2]. `COc1ccccc1Nc1ccnc2ccc(Nc3nnc(C(C)C)s3)nc12` [Example 0011]: the IC50 in assay [1] (setting [3]) was 1000 to 10000 nM; in assay [2], < 1000 nM.

As for `COc1cccc(Nc2ccnc3ccc(Nc4nnc(C(C)C)s4)nc23)c1` [Example 0012], the IC50 in assay [1] (setting [3]) is 1000 to 10000 nM; in assay [2] it was < 1000 nM.

Regarding `COc1ccc(Nc2ccnc3ccc(Nc4nnc(C(C)C)s4)nc23)cc1` [Example 0013], the results for the IC50 in assay [1] (setting [3]) and in assay [2] were 1000 to 10000 nM and < 1000 nM, respectively. For `CC(C)c1cnnc(Nc2ccc3ncc(-c4cnn(CCCN(C)C)c4)cc3n2)c1` [Example 0020, 7-(1-(3-(Dimethylamino)propyl)-1H-pyrazol-4-yl)-N-(5-isopropylpyridazin-3-yl)-1,5-naphthyridine-2-amine] the same measures were < 1000 nM and < 1000 nM. In the same order, the values of `COc1ccc(-c2cnc3ccc(Nc4ncc(C)s4)nc3c2)cc1OC` [Example 0022, N-(7-(3,4-dimethoxyphenyl)-1,5-naphthyridin-2-yl)-5-methylthiazole-2-amine] are 10000 to 50000 nM and 1000 to 10000 nM.

Turning to `COc1ccc(-c2cnc3ccc(Nc4nccs4)nc3c2)cc1OC` [Example 0023, N-(7-(3,4-dimethoxyphenyl)-1,5-naphthyridin-2-yl)thiazole-2-amine], the IC50 in assay [1] (setting [3]) and in assay [2] was 1000 to 10000 nM in each case. Regarding `COc1ccc(-c2cnc3ccc(Nc4nc(C)cs4)nc3c2)cc1OC` [Example 0024, N-(7-(3,4-dimethoxyphenyl)-1,5-naphthyridin-2-yl)-4-methylthiazole-2-amine], the IC50 lay within 10000 to 50000 nM in assay [1] (setting [3]) and 1000 to 10000 nM in assay [2]. In the case of `Cn1cc(-c2cnc3ccc(Nc4nccs4)nc3c2)cn1` [Example 0029], the IC50 in assay [1] (setting [3]) and in assay [2] was < 1000 nM throughout.

As to `Cn1cc(-c2cnc3ccc(Nc4ncc[nH]4)nc3c2)cn1` [Example 0030, N-(1H-imidazol-2-yl)-7-(1-methyl-1H-pyrazol-4-yl)-1,5-naphthyridine-2-amine], the IC50 in assay [1] (setting [3]) and in assay [2] was < 1000 nM in each case. Take `Cn1cc(-c2cnc3ccc(Nc4cc[nH]n4)nc3c2)cn1` [Example 0033, 7-(1-methyl-1H-pyrazol-4-yl)-N-(1H-pyrazol-3-yl)-1,5-naphthyridine-2-aminetrifluoroacetate]: the IC50 in assay [1] (setting [3]) and in assay [2] was 1000 to 10000 nM in each case. Turning to `CCOC(=O)c1cnc(Nc2ccc3ncc(-c4cnn(C)c4)cc3n2)s1` [Example 0035, ethyl 2-((7-(1-methyl-1H-pyrazol-4-yl)-1,5-naphthyridin-2-yl)amino)thiazole-5-carboxylate], the IC50 in assay [1] (setting [3]) is 1000 to 10000 nM; in assay [2], < 1000 nM.

For `Cn1cc(-c2cnc3ccc(Nc4ccccn4)nc3c2)cn1` [Example 0036, 7-(1-methyl-1H-pyrazol-4-yl)-N-(pyridin-2-yl)-1,5-naphthyridine-2-amine], the IC50 in assay [1] (setting [3]) and in assay [2] was 1000 to 10000 nM in each case. Take `Cn1cc(-c2cnc3ccc(Nc4cccnc4)nc3c2)cn1` [Example 0038]: the IC50 is 1000 to 10000 nM in assay [1] (setting [3]) and 10000 to 50000 nM in assay [2].

As for `Oc1cnc2ccc(Nc3nnc(C4CCCC4)s3)nc2c1` [Example 0040, 6-((5-cyclopentyl-1,3,4-thiadiazol-2-yl)amino)-1,5-naphthyridin-3-ol hydrochloride], the figures for the IC50 in assay [1] (setting [3]) and in assay [2] were < 1000 nM and 10000 to 50000 nM, respectively.

On to `COCCOc1cnc2ccc(Nc3nnc(C4CCCC4)s3)nc2c1` [Example 0041, 5-cyclopentyl-N-(7-(2-methoxyethoxy)-1,5-naphthyridin-2-yl)-1,3,4-thiadiazole-2-amine hydrochloride], for which the IC50 in assay [1] (setting [3]) is < 1000 nM; in assay [2], 10000 to 50000 nM. For `c1cnc2ccc(Nc3nnc(C4CCCC4)s3)nc2c1` [Example 0043, 5-cyclopentyl-N-(1,5-naphthyridin-2-yl)-1,3,4-thiadiazole-2-amine hydrochloride], the IC50 is < 1000 nM in assay [1] (setting [3]) and 1000 to 10000 nM in assay [2]. In the same order, the values of `O=C1C=C(c2cnc3ccc(Nc4nnc(C5CCCC5)s4)nc3c2)CO1` [Example 0045, 4-(6-((5-cyclopentyl-1,3,4-thiadiazol-2-yl)amino)-1,5-naphthyridin-3-yl)furan-2(5H)-one hydrochloride] are < 1000 nM and 10000 to 50000 nM. For `OCCN1CCN(c2cnc3ccc(Nc4nnc(C5CCCC5)s4)nc3c2)CC1` [Example 0046, 2-(4-(6-((5-cyclopentyl-1,3,4-thiadiazol-2-yl)amino)-1,5-naphthyridin-3-yl)piperazin-1-yl)ethanol hydrochloride] the same measures were < 1000 nM and 1000 to 10000 nM. For `CC(=O)N1CCN(c2cnc3ccc(Nc4nnc(C5CCCC5)s4)nc3c2)CC1` [Example 0048] the same measures were < 1000 nM and 1000 to 10000 nM. Regarding `OCCCN1CCN(c2cnc3ccc(Nc4nnc(C5CCCC5)s4)nc3c2)CC1` [Example 0050], the values for the IC50 in assay [1] (setting [3]) and in assay [2] were < 1000 nM and 1000 to 10000 nM, respectively. Turning to `OC1CCN(c2cnc3ccc(Nc4nnc(C5CCCC5)s4)nc3c2)CC1` [Example 0051], the values for the IC50 in assay [1] (setting [3]) and in assay [2] were < 1000 nM and 1000 to 10000 nM, respectively. In the same order, the values of `CN1CCN(c2cnc3ccc(Nc4nnc(C5CCCC5)s4)nc3c2)CC1` [Example 0052] are < 1000 nM and 1000 to 10000 nM.

As to `c1ccc(-c2cnc3ccc(Nc4nnc(C5CCCC5)s4)nc3c2)cc1` [Example 0218, 5-Cyclopentyl-N-(7-phenyl-1,5-naphthyridin-2-yl)-1,3,4-thiadiazole-2-amine], the IC50 in assay [1] (ERK2 enzyme assay (1)) is < 1000 nM. Same read-out and setting: the same measure for `CCOC(=O)c1nnc(Nc2ccc3ncc(-c4cnn(C)c4)cc3n2)s1` [Example 0230]: < 1000 nM; for `COc1cccc(-c2ccnc3ccc(Nc4nnc(C(C)C)s4)nc23)c1` [Example 0271]: < 1000 nM; for `CC(C)(C)OC(=O)N1CC=C(c2cnc3ccc(Nc4nnc(C5CCCC5)s4)nc3c2)CC1` [Example 0328, tert-butyl 4-(6-((5-cyclopentyl-1,3,4-thiadiazol-2-yl)amino)-1,5-naphthyridin-3-yl)-5,6-dihydropyridine-1(2H)-carboxylate]: < 1000 nM. Still for that read-out and setting: the same measure for `CC(C)(C)OC(=O)N1CCC(c2cnc3ccc(Nc4nnc(C5CCCC5)s4)nc3c2)CC1` [Example 0331, tert-butyl 4-(6-((5-cyclopentyl-1,3,4-thiadiazol-2-yl)amino)-1,5-naphthyridin-3-yl)piperidine-1-carboxylate]: 1000 to 10000 nM; for `FC(F)(F)CN1CCC(n2cc(-c3cnc4ccc(Nc5nnc(C6CCCC6)s5)nc4c3)cn2)CC1` [Example 0340, 5-cyclopentyl-N-(7-(1-(1-(2,2,2-trifluoroethyl)piperidin-4-yl)-1H-pyrazol-4-yl)-1,5-naphthyridin-2-yl)-1,3,4-thiadiazole-2-amine]: < 1000 nM. On the same count and under the same terms, the same measure for `CC(C)c1cnnc(Nc2ccc3ncc(-c4ccccc4)cc3n2)c1` [Example 0408]: < 1000 nM.
